According to ChEMBL document CHEMBL3877284, “Discovery of novel dengue virus NS5 methyltransferase non-nucleoside inhibitors by fragment-based drug design” (Eur J Med Chem, 2017):
The source made the active and inactive calls. The calls are words filed in the database; no cut-off is given here.

What was measured:
[1] = Inhibition of West Nile virus Uganda strain B956 NS5 2'-O-MTase activity assessed as reduction in [3H]AdoMet transfer to 7MeGpppAC4 capped RNA substrate after 30 mins by microbeta liquid scintillation counting method
[2] = Cytotoxicity against African green monkey Vero E6 cells up to 100 uM; type: toxicity, cell-based; conditions: chlorocebus sabaeus
[3] = Inhibition of Dengue virus 3 NS5 2'-O-MTase activity assessed as reduction in [3H]AdoMet transfer to 7MeGpppAC4 capped RNA substrate after 30 mins by microbeta liquid scintillation counting method; design: species or system dengue virus type 3
[4] = Inhibition of Dengue virus 3 NS5 N7-MTase activity assessed as reduction in [3H]AdoMet transfer to GpppA2'OMe-RNA74 substrate after 30 mins by microbeta liquid scintillation counting method; design: species or system dengue virus type 3
dengue virus type 3 = experiment: Binding affinity to Dengue virus 3 NS5 methyl transferase domain by thermal shift assay

IC50 [1] [µM] | IC50 [3] [µM] | IC50 [4] [µM] | Activity (dengue virus type 3) | Compound | Activity [2]
71 | 110 | 742 |  | Nc1cc(C(F)(F)F)ccc1NC(=O)Nc1ccc(S(=O)(=O)Nc2ccc(C(=O)O)cc2)cc1 | Non-Toxic
299 | 435 | > 1000 |  | Nc1cc(Cl)ccc1NC(=O)Nc1ccc(S(=O)(=O)Nc2ccc(C(=O)O)cc2)cc1 | 
190 | 368 | > 1000 |  | Nc1cc(Cl)ccc1NC(=O)Nc1ccc(S(=O)(=O)Oc2ccc(C(=O)O)cc2)cc1 | 
51 | 91 | 1120 |  | Nc1cc(C(F)(F)F)ccc1NC(=O)Nc1cccc(S(=O)(=O)Nc2ccc(C(=O)O)cc2)c1 | Non-Toxic
 | 9000 |  | Active | Nc1ccc(C(F)(F)F)cc1N | 
182 | 452 | > 1000 |  | Nc1cc(Cl)ccc1NC(=O)Nc1cccc(S(=O)(=O)Nc2ccc(C(=O)O)cc2)c1 | 
120 | 369 | > 1000 |  | Nc1cc(Cl)ccc1NC(=O)Nc1cccc(S(=O)(=O)Oc2ccc(C(=O)O)cc2)c1 | 
 | 2800 |  | Active | Cc1ccc(C(=O)O)c(N)c1 | 

Compound | IC50 [1] [µM] | IC50 [3] [µM] | IC50 [4] [µM] | Activity (dengue virus type 3) | Activity [2]
Cc1cc(N)c(N)cc1Cl |  | 9300 |  | Active | 
